From article PMC9080226 (RSC Advances, 2018)

What was measured:
COMT in HLS9 = target: T1, COMT in HLS9 (Homo sapiens, UniProt P21964); assay: Kinetic analysis of 3-BTD methylation in human liver S9; format: in vitro ADME, humans; conditions: formation of 3-BTMD in HLS9; Vmax/Km
T1 sequence (P21964 51-271 limits assumed): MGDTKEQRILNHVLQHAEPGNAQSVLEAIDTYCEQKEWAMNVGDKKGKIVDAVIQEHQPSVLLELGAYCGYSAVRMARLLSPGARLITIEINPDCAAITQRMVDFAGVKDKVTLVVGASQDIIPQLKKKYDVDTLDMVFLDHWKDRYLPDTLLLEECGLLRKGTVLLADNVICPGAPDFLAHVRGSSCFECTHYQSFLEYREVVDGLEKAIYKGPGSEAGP

COMT in DLS9 [1] = target: T2, COMT in DLS9 (Canis lupus familiaris, UniProt Q60F99); assay: Kinetic analysis of 3-BTD methylation in dog liver S9; format: in vitro ADME, beagle dogs; conditions: formation of 3-BTMD in DLS9; Vmax/Km
T2 sequence (Q60F99 1-221): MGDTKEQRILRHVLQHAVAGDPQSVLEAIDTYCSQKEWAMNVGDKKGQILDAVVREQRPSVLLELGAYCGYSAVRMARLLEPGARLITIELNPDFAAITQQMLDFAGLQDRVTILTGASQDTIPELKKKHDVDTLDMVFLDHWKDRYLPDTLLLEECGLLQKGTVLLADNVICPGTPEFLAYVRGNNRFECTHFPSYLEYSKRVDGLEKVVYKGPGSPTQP

COMT in MLS9 [2] = target: T3, COMT in MLS9 (Mus musculus, UniProt O88587); assay: Kinetic analysis of 3-BTD methylation in mouse liver S9; format: in vitro ADME, ICR/CD-1 mice; conditions: formation of 3-BTMD in MLS9; Vmax/Km
T3 sequence (O88587 44-265 limits assumed): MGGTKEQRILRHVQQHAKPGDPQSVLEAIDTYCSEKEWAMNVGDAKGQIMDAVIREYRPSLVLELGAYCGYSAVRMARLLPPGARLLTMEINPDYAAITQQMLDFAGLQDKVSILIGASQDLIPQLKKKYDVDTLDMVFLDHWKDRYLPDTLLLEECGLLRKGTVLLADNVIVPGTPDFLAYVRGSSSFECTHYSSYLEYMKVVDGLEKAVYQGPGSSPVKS

COMT in RLS9 = target: T4, COMT in RLS9 (Rattus norvegicus, UniProt P22734); assay: Kinetic analysis of 3-BTD methylation in rat liver S9; format: in vitro ADME, Sprague-Dawley rats; conditions: formation of 3-BTMD in RLS9; Vmax/Km
T4 sequence (P22734 44-264 limits assumed): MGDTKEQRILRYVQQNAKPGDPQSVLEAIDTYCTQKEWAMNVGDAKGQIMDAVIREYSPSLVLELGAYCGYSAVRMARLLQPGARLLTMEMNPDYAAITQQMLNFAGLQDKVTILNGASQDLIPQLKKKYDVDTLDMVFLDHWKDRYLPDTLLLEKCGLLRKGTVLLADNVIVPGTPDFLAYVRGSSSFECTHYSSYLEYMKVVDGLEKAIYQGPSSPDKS

COMT in GpLS9 [3] = target: T5, COMT in GpLS9 (Cavia porcellus, UniProt A0A286XRD6); assay: Kinetic analysis of 3-BTD methylation in guinea pig liver S9; format: in vitro ADME, Dunkin-Hartley guinea pigs; conditions: formation of 3-BTMD in GpLS9; Vmax/Km
T5 sequence (A0A286XRD6 1-270): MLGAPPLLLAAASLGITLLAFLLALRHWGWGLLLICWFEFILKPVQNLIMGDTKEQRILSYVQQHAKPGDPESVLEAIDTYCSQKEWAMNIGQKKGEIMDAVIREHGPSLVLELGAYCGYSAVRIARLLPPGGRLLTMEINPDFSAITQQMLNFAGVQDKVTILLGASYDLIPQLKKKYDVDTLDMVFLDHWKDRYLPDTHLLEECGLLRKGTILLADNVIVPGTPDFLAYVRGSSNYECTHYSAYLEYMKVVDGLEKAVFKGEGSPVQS

COMT in RaLS9 [4] = target: T6, COMT in RaLS9 (Oryctolagus cuniculus, UniProt A0A5F9DQ59); format: in vitro ADME, New Zealand rabbits; conditions: formation of 3-BTMD in RaLS9; Vmax/Km
T6 sequence (A0A5F9DQ59 1-268): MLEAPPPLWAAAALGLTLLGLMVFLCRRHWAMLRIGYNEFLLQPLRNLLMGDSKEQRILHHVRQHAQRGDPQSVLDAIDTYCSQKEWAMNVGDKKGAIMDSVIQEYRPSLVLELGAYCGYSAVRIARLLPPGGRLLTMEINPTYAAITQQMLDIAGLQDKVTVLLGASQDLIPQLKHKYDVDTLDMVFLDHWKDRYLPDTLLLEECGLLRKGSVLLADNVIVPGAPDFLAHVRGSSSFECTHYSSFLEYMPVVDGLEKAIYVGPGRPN

COMT in DLS9 [5] = target: T2, COMT in DLS9; assay: Chemical inhibition assay of 3-BTD methylation in dog liver S9; format: biochemical, beagle dogs
COMT in GpLS9 [6] = target: T5, COMT in GpLS9; assay: Chemical inhibition assay of 3-BTD methylation in guinea pig liver S9; format: biochemical, Dunkin-Hartley guinea pigs
COMT in RaLS9 [7] = system: COMT in RaLS9
[8] = system: mammalian COMT in liver S9; conditions: tolcapone 1000 nM, liver S9 from all the test species
COMT in MLS9 [9] = target: T3, COMT in MLS9; assay: biochemical
COMT in RaLS9 [10] = target: T6, COMT in RaLS9; assay: biochemical
COMT in CyLS9 = target: T7, COMT in CyLS9 (Macaca fascicularis, UniProt A0A7N9CL08); assay: Chemical inhibition assay of 3-BTD methylation in cynomolgus monkey liver S9
T7 sequence (A0A7N9CL08 1-274): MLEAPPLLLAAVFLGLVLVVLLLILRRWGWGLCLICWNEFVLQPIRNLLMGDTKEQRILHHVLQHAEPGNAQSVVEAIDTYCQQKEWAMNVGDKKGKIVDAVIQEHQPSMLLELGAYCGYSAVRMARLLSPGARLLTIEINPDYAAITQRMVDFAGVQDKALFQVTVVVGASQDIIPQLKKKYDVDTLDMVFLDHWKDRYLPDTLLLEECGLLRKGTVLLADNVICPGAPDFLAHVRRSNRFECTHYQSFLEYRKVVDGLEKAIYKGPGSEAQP

Clint (COMT in HLS9) [µL/min/mg] | Clint (COMT in DLS9 [1]) [µL/min/mg] | Clint (COMT in MLS9 [2]) [µL/min/mg] | Clint (COMT in RLS9) [µL/min/mg] | Clint (COMT in GpLS9 [3]) [µL/min/mg] | Clint (COMT in RaLS9 [4]) [µL/min/mg] | IC50 (COMT in DLS9 [5]) [nM] | IC50 (COMT in GpLS9 [6]) [nM] | inhibitory potency (IC50) in animal liver S9 versus HLS9 (COMT in RaLS9 [7]) [fold] | IC50 (COMT in MLS9 [9]) [nM] | IC50 (COMT in RaLS9 [10]) [nM] | IC50 (COMT in CyLS9; CyLS9 0.2 mg ml^−1, 3-BTD (1 μM) 8-O-methylation as probe reaction, mean ± S.E.) [nM] | inhibitory potency (IC50) in animal liver S9 versus HLS9 (COMT in CyLS9; CyLS9 versus HLS9) [fold] | Compound | inhibition of mammalian COMT-mediated 3-BTD methylation [8]
112 | 627 | 523 | 763 | 191 | 235 | – | – | – | – | – | – | – | O=c1oc2c(O)c(O)ccc2cc1-c1nc2ccccc2s1 [3-BTD, 3-(benzo[d]thiazol-2-yl)-7,8-dihydroxy-2H-chromen-2-one] | –
– | – | – | – | – | – | 20.8 ± 2.7 | 108 ± 7.1 | 6.9 | 29 ± 3.9 | 117 ± 10.3 | 18.7 ± 3 | 1.1 | Cc1ccc(C(=O)c2cc(O)c(O)c([N+](=O)[O-])c2)cc1 [tolcapone] | strongly inhibit
